# Patent publication US9157054B2, “Device and method for preparing microparticles” (The University of Queensland, priority 2007, dated 2015)
# Values joined by “and” are separate entries in the source; they are usually repeats but may differ in a detail not shown here. Identical values can stand only once.
# What was measured:
# physchem = conditions: aqueous buffer
# [1] = British Pharmacopoeia 2008; cited from earlier work
# [2] = Particle size by optical microscopy; format: physicochemical
# Excerpt: Alginate gel microparticles were examined using an optical microscope (Zeiss, AXIOSCOP 40) with […] attachment (AXIOCam MRm). The morphology and particle size of GS-loaded alginate microparticles were characterized according to the methods described above. The morphology of insulin-loaded alginate gel microparticles and the particle size were characterized according to the methods described above. The morphology and particle size was characterized according to the methods described above.
smiles,measurement,setting,value
CC(C)Cc1ccc(C(C)C(=O)O)cc1 (centres unmarked) [ibuprofen],solubility,physchem,0.3 mg/mL
same,"solubility in acetone, methanol and dichloromethane (DCM)",[1],freely soluble
same,solubility in water,[1],practically insoluble
same,powder particle size,"[2]; 'as received' powder, before size reduction",30-100 micron and 30-40 micron
same,crystal / powder particle size,"[2]; after precipitation from acetone into alginate solution, optical microscope",10-15 microns
